Reference: patent publication US20100267784A1, “NOVEL 4,5-DIHYDROISOXAZOLES WITH ESTROGENIC ACTIVITY” (priority 2007, published 2010)
pIC50: −log10 of the molar value.

Experiments:
ERβ [1] = target: T1, ERβ (Homo sapiens, UniProt Q92731); assay: Competitive binding against [6,7-3H(N)]estradiol in COS-1 cells transfected with human ERβ; details: for pIC50: ERβ IC50, COS-1 cells, competition against labeled E2, 2 hours at 37° C.; for ERβ RBA (relative binding affinity): relative to E2 = 100.0
Procedure: (§2) Determination of Relative Binding Affinity (RBA).
(§3) Relative binding affinities (RBA) were measured by a competitive assay against [6,7-^3H(N)]estradiol (PerkinElmer) in transsiently transfected COS-1 cells. […] After 2 hours of incubation at 37° C. the medium was removed. The cells were removed from the wells to 150 μl of 1× phosphate buffered saline (PBS), transferred to Eppendorf tubes and centrifuged at 4° C. using 4000 g for 5 min, and then washed twice with 150 μl of PBS. The cell pellets were dissolved to 50 μl of 0.5M NaOH and incubated for 15 min at 56° C., after which the samples were transferred to liquid twinkle tubes and treated with 3 ml of OptiPhase HiSafe 3 twinkle solution (PerkinElmer).

ERα [2] = target: T2, ERα (Homo sapiens, UniProt P03372); assay: ERα reporter (luciferase) transactivation assay in transfected HEK293 cells; type: cell-based; design: expressed in transfected cells; host or cells: HEK293; details: sample concentration 10 μM, 24 hours, mean of at least three independent transfections
T2 sequence (P03372 1-595): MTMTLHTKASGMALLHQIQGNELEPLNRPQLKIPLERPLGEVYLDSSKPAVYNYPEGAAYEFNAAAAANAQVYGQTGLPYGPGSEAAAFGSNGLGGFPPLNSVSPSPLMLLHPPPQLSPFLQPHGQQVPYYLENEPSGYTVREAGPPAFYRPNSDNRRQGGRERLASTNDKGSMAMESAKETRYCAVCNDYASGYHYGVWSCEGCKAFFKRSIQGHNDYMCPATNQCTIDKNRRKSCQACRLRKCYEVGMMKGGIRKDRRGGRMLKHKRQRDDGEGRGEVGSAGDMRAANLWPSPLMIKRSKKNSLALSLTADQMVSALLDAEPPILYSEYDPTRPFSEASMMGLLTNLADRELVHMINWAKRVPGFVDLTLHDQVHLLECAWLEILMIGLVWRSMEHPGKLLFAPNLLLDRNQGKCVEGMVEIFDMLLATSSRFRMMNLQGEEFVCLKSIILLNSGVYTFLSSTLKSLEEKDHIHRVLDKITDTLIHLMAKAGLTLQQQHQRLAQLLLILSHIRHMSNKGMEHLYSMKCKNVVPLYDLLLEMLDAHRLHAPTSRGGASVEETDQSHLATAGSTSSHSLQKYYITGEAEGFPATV
Summary of the method: (§1)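 HEK293 cells in phenol-free DMEM with 5% delipidated FBS were calcium-phosphate transfected for 4 h with ERα or ERβ vector, pERE2TATA-LUC reporter and pCMVβ control. Test compound (10 μM) or vehicle was applied for 24 h, then luciferase and β-galactosidase were measured. Values are means ±SEM of ≥3 transfections.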

ERα [3] = target: T2, ERα; assay: Competitive binding against [6,7-3H(N)]estradiol in COS-1 cells transfected with human ERα; details: for pIC50: ERα IC50, COS-1 cells, competition against labeled E2, 2 hours at 37° C.; for ERα RBA (relative binding affinity): relative to E2 = 100.0
Procedure: as §2, §3

ERβ [4] = target: T1, ERβ; assay: ERβ reporter (luciferase) transactivation assay in transfected HEK293 cells; type: cell-based; design: expressed in transfected cells; host or cells: HEK293; details: for ERβ receptor activation relative to 10 nM E2 corresponding 100: sample concentration 10 μM, 24 hours, mean of at least three independent transfections
Summary of the method: as §1

T1 sequence (Q92731 whole entry): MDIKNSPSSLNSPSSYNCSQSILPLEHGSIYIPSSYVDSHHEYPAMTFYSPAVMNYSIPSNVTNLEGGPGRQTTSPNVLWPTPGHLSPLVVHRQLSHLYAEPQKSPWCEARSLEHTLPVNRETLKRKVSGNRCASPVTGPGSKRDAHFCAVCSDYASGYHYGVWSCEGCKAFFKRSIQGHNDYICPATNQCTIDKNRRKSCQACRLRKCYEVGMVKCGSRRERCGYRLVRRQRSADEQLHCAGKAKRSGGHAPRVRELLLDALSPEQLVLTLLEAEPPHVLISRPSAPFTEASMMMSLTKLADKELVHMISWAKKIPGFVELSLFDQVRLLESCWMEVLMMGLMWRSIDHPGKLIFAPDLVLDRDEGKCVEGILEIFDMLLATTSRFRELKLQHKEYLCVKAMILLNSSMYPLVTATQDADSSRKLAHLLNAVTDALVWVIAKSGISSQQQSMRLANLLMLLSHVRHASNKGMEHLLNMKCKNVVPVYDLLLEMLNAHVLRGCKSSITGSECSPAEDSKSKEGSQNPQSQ

Structure (SMILES) | pIC50 (ERβ [1]) | ERβ RBA (relative binding affinity) (ERβ [1]) | ERα receptor activation relative to 10 nM E2 corresponding 100 (ERα [2]) | pIC50 (ERα [3]) | ERα RBA (relative binding affinity) (ERα [3]) | ERβ receptor activation relative to 10 nM E2 corresponding 100 (ERβ [4]) | melting point | activation at 10 µM (ERβ [4]; HEK293, 24 h, read-out: ERβ receptor activation relative to 10 nM E2 corresponding 100, sample concentration 10 μM, mean of at least three independent transfections)
Oc1ccc(CCCC2=NOC(c3ccccc3)C2)cc1 (single isomer, unassigned) [88a, 3-[3-(4-Hydroxy-phenyl)-propyl]-5-phenyl-4,5-dihydroisoxazole] | 5.69 | 0.096% | 103.6% | 7.90 | 15.68% | 44.7% |  | 
Oc1ccc(CCCC2=NOC(c3ccccc3)C2)cc1 (single isomer, unassigned) [88b, 3-[3-(4-Hydroxy-phenyl)-propyl]-5-phenyl-4,5-dihydroisoxazole] | 5.90 | 0.157% | 65.0% | 7.52 | 6.533% | 77.1% |  | 
CC1(c2ccccc2)CC(CCCc2ccc(O)cc2)=NO1 (single isomer, unassigned) [90a, 3-[3-(4-Hydroxy-phenyl)-propyl]-5-methyl-5-phenyl-4,5-dihydro-isoxazole] | 5.51 | 0.063% | 88.8% | 6.60 | 0.784% | 64.8% |  | 
CC1(c2ccccc2)CC(CCCc2ccc(O)cc2)=NO1 (single isomer, unassigned) [90b, 3-[3-(4-Hydroxy-phenyl)-propyl]-5-methyl-5-phenyl-4,5-dihydro-isoxazole] | 4.70 | 0.010% | 86.5% | 4.64 | 0.009% | 30.1% |  | 
Oc1ccc(CCC2=NOC(Cc3ccccc3)C2)cc1 (single isomer, unassigned) [93a, 5-Benzyl-3-[2-(4-hydroxy-phenyl)-ethyl]-4,5-dihydro-isoxazole] | 5.90 | 0.157% | 171.1% | 6.67 | 0.912% | 143.1% |  | 
Oc1ccc(CCC2=NOC(Cc3ccccc3)C2)cc1 (single isomer, unassigned) [93b, 5-Benzyl-3-[2-(4-hydroxy-phenyl)-ethyl]-4,5-dihydro-isoxazole] | 5.96 | 0.180% | 24.3% | 5.67 | 0.091% | 41.5% |  | 
c1ccc(CCCC2=NOC(c3ccccc3)C2)cc1 (single isomer, unassigned) [113a, 5-Phenyl-3-(3-phenyl-propyl)-4,5-dihydro-isoxazole] |  |  | 44.3% | 5.72 | 0.103% | −3.1% |  | 
c1ccc(CCCC2=NOC(c3ccccc3)C2)cc1 (single isomer, unassigned) [113b, 5-Phenyl-3-(3-phenyl-propyl)-4,5-dihydro-isoxazole] | 5.27 | 0.036% | 11.5% | 5.25 | 0.035% | 17.2% |  | 
COc1ccc(C2=NOC(Cc3ccc(OC)c(OC)c3)C2)cc1 (stereo not shown) [16ab, 5-(3,4-Dimethoxybenzyl)-3-(4-methoxyphenyl)-4,5-dihydroisoxazole] |  |  | −4.0% |  |  |  | 88.1 to 89.2 °C | 7.3%
COc1ccccc1C1=NOC(Cc2ccccc2)(c2ccccc2)C1 (stereo not shown) [compound 74, 5-Benzyl-3-(2-methoxyphenyl)-5-phenyl-4,5-dihydro-isoxazole] |  |  |  |  |  |  | 109.3 to 110.2 °C | 
Fc1ccccc1C1=NOC(Cc2ccccc2)(c2ccccc2)C1 (stereo not shown) [compound 75, 5-Benzyl-3-(2-fluorophenyl)-5-phenyl-4,5-dihydro-isoxazole] |  |  |  |  |  |  | 134.3 to 135.2 °C | 
Clc1ccc(C2=NOC(Cc3ccccc3)(c3ccccc3)C2)cc1 (stereo not shown) [compound 76, 5-Benzyl-3-(4-chlorophenyl)-5-phenyl-4,5-dihydro-isoxazole] |  |  |  |  |  |  | 120.3 to 122.1 °C | 
COc1cccc(C2=NOC(Cc3ccccc3)(c3ccccc3)C2)c1 (stereo not shown) [compound 77, 5-Benzyl-5-phenyl-3-(3-methoxyphenyl)-4,5-dihydro-isoxazole] |  |  |  |  |  |  | 94.4 to 95.2 °C | 
Oc1cccc(CCC2=NOC(Cc3ccccc3)C2)c1 (stereo not shown) [compound 92, 5-Benzyl-3-[2-(3-hydroxy-phenyl)-ethyl]-4,5-dihydro-isoxazole] |  |  |  |  |  |  | 120.6 to 122.8 °C | 
Oc1ccc(CCC2=NOC(Cc3ccccc3)C2)cc1 (stereo not shown) [compound 93, 5-Benzyl-3-[2-(4-hydroxy-phenyl)-ethyl]-4,5-dihydro-isoxazole] |  |  |  |  |  |  | 143 to 144.8 °C | 
Oc1ccc(CC2CC(CCc3ccccc3)=NO2)cc1 (stereo not shown) [compound 94, 5-(4-Hydroxy-benzyl)-3-phenethyl-4,5-dihydro-isoxazole] |  |  |  |  |  |  | 124.8 to 126.4 °C | 
Oc1ccccc1CCC1=NOC(Cc2ccc(F)cc2)C1 (stereo not shown) [compound 97, 5-(4-Fluoro-benzyl)-3-[2-(2-hydroxy-phenyl)-ethyl]-4,5-dihydro-isoxazole] |  |  |  |  |  |  | 124.8 to 126.4 °C | 
c1ccc(CC2CC(c3ccccc3)=NO2)cc1 (stereo not shown) [compound 107, 5-Benzyl-3-phenyl-4,5-dihydroisoxazole] |  |  |  |  |  |  | 67 to 68 °C | 
c1ccc(CCC2=NOC(c3ccccc3)C2)cc1 (stereo not shown) [compound 110, 3-Phenethyl-5-phenyl-4,5-dihydroisoxazole] |  |  |  |  |  |  | 35 to 36.3 °C | 
c1ccc(CCC2CC(c3ccccc3)=NO2)cc1 (stereo not shown) [compound 111, 5-Phenethyl-3-phenyl-4,5-dihydroisoxazole] |  |  |  |  |  |  | 66.1 to 67.2 °C | 
c1ccc(CCC2=NOC(CCc3ccccc3)C2)cc1 (stereo not shown) [compound 116, 3,5-Di-phenethyl-4,5-dihydroisoxazole] |  |  |  |  |  |  | 56.2 to 58 °C | 
